Marks after values point to notes of the source that are not given here.
The molecules below were run on Rabbit Psoas myofibrils (skeletal myosin ATPase) (assay: Myofibril ATPase assay, rabbit psoas (skeletal) myofibrils). Conditions: Y75 value (no ‡ mark); rabbit psoas myofibrils.
Format: biochemical
Method in brief: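 Values are concentrations giving 75% (Y75) or 125% (Y125) of vehicle ATPase activity, from 4-parameter logistic fits of normalized rates. Rates came from linear regression of A340 over 75 min, NADH oxidation coupled to ADP via PK-LDH. Enzyme source: skeletal myofibrils from rabbit psoas, pH 7.0 pCa buffer.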

| Compound | Skeletal EC25 |
| --- | --- |
| C[C@H](NC(=O)Cc1c(C#N)c2cc(F)c(F)cc2[nH]c1=O)c1ccc(C#N)cn1 (single isomer, unassigned) [compound 2048] | 1.25 µM |
| COc1ccc2[nH]c(=O)c(CC(=O)N[C@@H](C)c3ccc(F)cc3F)cc2c1 [compound 124] | 42.44 µM |
| Cc1nc(C#N)cnc1[C@H](C)NC(=O)C(F)(F)c1c(C)c2cc(F)ccc2[nH]c1=O (single isomer, unassigned) [compound 2568] | 0.11 µM |
| C[C@@H](NC(=O)C1(c2cc3c(F)c(F)ccc3[nH]c2=O)CC1)c1ncc(C#N)cc1F (single isomer, unassigned) [compound 2592] | 3.54 µM |
| Cc1c(F)ccc2[nH]c(=O)c(C(F)(F)C(=O)N[C@H](C)c3ncc(C#N)cc3F)c(C#N)c12 (single isomer, unassigned) [compound 2519] | 0.52 µM |
| Cc1c(CC(=O)N[C@H](C)c2ncc(C#N)cc2F)c(=O)[nH]c2ccc(Cl)cc12 (single isomer, unassigned) [compound 2049] | 1.00 µM |
| Cc1c(C2(C(=O)N[C@@H]3CCc4cc(C#N)cnc43)CC2)c(=O)[nH]c2ccc(F)c(F)c12 (single isomer, unassigned) [compound 4803] | 0.27 µM |
| Cc1c(C(F)(F)C(=O)N[C@@H](C)c2cnc(C#N)cn2)c(=O)[nH]c2ccc(F)cc12 (single isomer, unassigned) [compound 2564] | 0.49 µM |
| C[C@@H](NC(=O)Cc1c(C2CC2)c2cc(C#N)ccc2[nH]c1=O)c1ncc(C#N)cc1F [compound 1151] | 10.08 µM |
| Cc1c(CC(=O)N[C@@H](C)c2ccc(C#N)nn2)c(=O)[nH]c2cc(F)c(F)cc12 [compound 1043] | 0.41 µM |
| Cc1c(CC(=O)N[C@H]2CCc3cc(C#N)cnc32)c(=O)[nH]c2ccc(F)cc12 [compound 1093] | 100.00 µM |

Same assay, conditions: Y75 value: concentration required to reduce myosin ATP-ase activity by 25%; Rabbit Psoas Prep pCa 25 GEOM_MEAN

| Compound | Skeletal EC25 |
| --- | --- |
| Cc1c(CC(=O)NC(C)c2cc(C#N)c(F)s2)c(=O)[nH]c2ccc(F)c(F)c12 (stereo not drawn) [compound 4001] | 0.16 µM |

Same assay, conditions: rabbit psoas myofibrils; Y75 value

| Compound | Skeletal EC25 |
| --- | --- |
| C[C@H](NC(=O)Cc1c(C(F)(F)F)c2c(C3CC3)nccc2[nH]c1=O)c1ccc(C#N)cn1 (single isomer, unassigned) [compound 3006] | 100.00 µM |
| COC[C@H](NC(=O)Cc1c(C)c2c(C)nccc2[nH]c1=O)c1ccc(C#N)cc1F [compound 169] | 0.15 µM |
| Cc1c(CC(=O)N[C@@H](C)c2ccc(F)cc2F)c(=O)[nH]c2ccnc(NC3CC3)c12 [compound 276] | 0.14 µM |
| Cc1nccc2[nH]c(=O)c(CC(=O)N[C@H](CO)c3ccccn3)c(C)c12 (single isomer, unassigned) [compound 316] | 100.00 µM |
| Cc1c(CC(=O)N[C@@H](CO)c2ccc(F)cc2F)c(=O)[nH]c2ccnc(OC3CC3)c12 [compound 200] | 0.19 µM |
| Cc1cccc([C@H](C)NC(=O)Cc2c(C)c3c(C)nccc3[nH]c2=O)c1 (single isomer, unassigned) [compound 340] | 100.00 µM |

What follows are molecules tested on Porcine atria myofibrils (atrial myosin ATPase) (assay: Myofibril ATPase assay, porcine atria myofibrils). Conditions: Y75 value (no ‡ mark); porcine atria myofibrils.
Format: biochemical
Method in brief: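 Y75 (25% inhibition) or Y125 (activation) values come from 4-parameter logistic fits of vehicle-normalized rates. Rates are linear-regression slopes of NADH absorbance at 340 nm, read kinetically over 75 min, with ADP coupled to NADH oxidation via pyruvate kinase/lactate dehydrogenase.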

| Compound | Atrial EC25 |
| --- | --- |
| C[C@H](NC(=O)Cc1c(C#N)c2cc(F)c(F)cc2[nH]c1=O)c1ccc(C#N)cn1 (single isomer, unassigned) [compound 2048] | 0.90 µM |
| COc1ccc2[nH]c(=O)c(CC(=O)N[C@@H](C)c3ccc(F)cc3F)cc2c1 [compound 124] | 100.00 µM |
| Cc1nc(C#N)cnc1[C@H](C)NC(=O)C(F)(F)c1c(C)c2cc(F)ccc2[nH]c1=O (single isomer, unassigned) [compound 2568] | 0.57 µM |
| C[C@@H](NC(=O)C1(c2cc3c(F)c(F)ccc3[nH]c2=O)CC1)c1ncc(C#N)cc1F (single isomer, unassigned) [compound 2592] | 0.13 µM |
| Cc1c(F)ccc2[nH]c(=O)c(C(F)(F)C(=O)N[C@H](C)c3ncc(C#N)cc3F)c(C#N)c12 (single isomer, unassigned) [compound 2519] | 0.31 µM |
| Cc1c(CC(=O)N[C@H](C)c2ncc(C#N)cc2F)c(=O)[nH]c2ccc(Cl)cc12 (single isomer, unassigned) [compound 2049] | 0.15 µM |
| Cc1c(C2(C(=O)N[C@@H]3CCc4cc(C#N)cnc43)CC2)c(=O)[nH]c2ccc(F)c(F)c12 (single isomer, unassigned) [compound 4803] | 100.00 µM |
| Cc1c(C(F)(F)C(=O)N[C@@H](C)c2cnc(C#N)cn2)c(=O)[nH]c2ccc(F)cc12 (single isomer, unassigned) [compound 2564] | 0.51 µM |
| C[C@@H](NC(=O)Cc1c(C2CC2)c2cc(C#N)ccc2[nH]c1=O)c1ncc(C#N)cc1F [compound 1151] | 21.52 µM |
| Cc1c(CC(=O)N[C@@H](C)c2ccc(C#N)nn2)c(=O)[nH]c2cc(F)c(F)cc12 [compound 1043] | 1.28 µM |
| Cc1c(CC(=O)N[C@H]2CCc3cc(C#N)cnc32)c(=O)[nH]c2ccc(F)cc12 [compound 1093] | 100.00 µM |

Same assay, conditions: Y75 value: concentration required to reduce myosin ATP-ase activity by 25%; Porcine Atria Prep pCa 25 GEOM_MEAN

| Compound | Atrial EC25 |
| --- | --- |
| Cc1c(CC(=O)NC(C)c2cc(C#N)c(F)s2)c(=O)[nH]c2ccc(F)c(F)c12 (stereo not drawn) [compound 4001] | 0.26 µM |

Same assay, conditions: porcine atria myofibrils; Y75 value (75% activity relative to no compound)

| Compound | Atrial EC25 |
| --- | --- |
| COC[C@H](NC(=O)Cc1c(C)c2c(C)nccc2[nH]c1=O)c1ccc(C#N)cc1F [compound 169] | 1.06 µM |
| Cc1c(CC(=O)N[C@@H](C)c2ccc(F)cc2F)c(=O)[nH]c2ccnc(NC3CC3)c12 [compound 276] | 1.25 µM |
| Cc1nccc2[nH]c(=O)c(CC(=O)N[C@H](CO)c3ccccn3)c(C)c12 (single isomer, unassigned) [compound 316] | 100.00 µM |
| Cc1c(CC(=O)N[C@@H](CO)c2ccc(F)cc2F)c(=O)[nH]c2ccnc(OC3CC3)c12 [compound 200] | 3.03 µM |
| Cc1cccc([C@H](C)NC(=O)Cc2c(C)c3c(C)nccc3[nH]c2=O)c1 (single isomer, unassigned) [compound 340] | 36.97 µM |

Same assay, conditions: porcine atria myofibrils; Y125 value (125% activity), not a Y75 value

| Compound | Atrial EC25 (Y125 value, marked ‡) |
| --- | --- |
| C[C@H](NC(=O)Cc1c(C(F)(F)F)c2c(C3CC3)nccc2[nH]c1=O)c1ccc(C#N)cn1 (single isomer, unassigned) [compound 3006] | 77.22‡ μM |

The molecules below were run against T1, Porcine ventricle myofibrils (ventricular myosin ATPase) (Sus scrofa, UniProt P79293) (assay: Myofibril ATPase assay, porcine ventricle myofibrils). Conditions: Y75 value (no ‡ mark); porcine ventricle myofibrils.
T1 construct: Myofibrils from porcine cardiac muscle was isolated from the left ventricle of Yucatan minipigs; tissue Exemplar Genetics; host or cells: left ventricle of Yucatan minipigs, myofibrils prepared in house
Format: biochemical, porcine (Yucatan minipigs)
Method in brief: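 ATPase activity of porcine left-ventricular myofibrils is tracked as the slope of NADH loss at 340 nm through a PK/LDH couple. Values are the concentrations that bring activity to 75% (inhibitors) or 125% (activators) of vehicle.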

T1 sequence (P79293 whole entry): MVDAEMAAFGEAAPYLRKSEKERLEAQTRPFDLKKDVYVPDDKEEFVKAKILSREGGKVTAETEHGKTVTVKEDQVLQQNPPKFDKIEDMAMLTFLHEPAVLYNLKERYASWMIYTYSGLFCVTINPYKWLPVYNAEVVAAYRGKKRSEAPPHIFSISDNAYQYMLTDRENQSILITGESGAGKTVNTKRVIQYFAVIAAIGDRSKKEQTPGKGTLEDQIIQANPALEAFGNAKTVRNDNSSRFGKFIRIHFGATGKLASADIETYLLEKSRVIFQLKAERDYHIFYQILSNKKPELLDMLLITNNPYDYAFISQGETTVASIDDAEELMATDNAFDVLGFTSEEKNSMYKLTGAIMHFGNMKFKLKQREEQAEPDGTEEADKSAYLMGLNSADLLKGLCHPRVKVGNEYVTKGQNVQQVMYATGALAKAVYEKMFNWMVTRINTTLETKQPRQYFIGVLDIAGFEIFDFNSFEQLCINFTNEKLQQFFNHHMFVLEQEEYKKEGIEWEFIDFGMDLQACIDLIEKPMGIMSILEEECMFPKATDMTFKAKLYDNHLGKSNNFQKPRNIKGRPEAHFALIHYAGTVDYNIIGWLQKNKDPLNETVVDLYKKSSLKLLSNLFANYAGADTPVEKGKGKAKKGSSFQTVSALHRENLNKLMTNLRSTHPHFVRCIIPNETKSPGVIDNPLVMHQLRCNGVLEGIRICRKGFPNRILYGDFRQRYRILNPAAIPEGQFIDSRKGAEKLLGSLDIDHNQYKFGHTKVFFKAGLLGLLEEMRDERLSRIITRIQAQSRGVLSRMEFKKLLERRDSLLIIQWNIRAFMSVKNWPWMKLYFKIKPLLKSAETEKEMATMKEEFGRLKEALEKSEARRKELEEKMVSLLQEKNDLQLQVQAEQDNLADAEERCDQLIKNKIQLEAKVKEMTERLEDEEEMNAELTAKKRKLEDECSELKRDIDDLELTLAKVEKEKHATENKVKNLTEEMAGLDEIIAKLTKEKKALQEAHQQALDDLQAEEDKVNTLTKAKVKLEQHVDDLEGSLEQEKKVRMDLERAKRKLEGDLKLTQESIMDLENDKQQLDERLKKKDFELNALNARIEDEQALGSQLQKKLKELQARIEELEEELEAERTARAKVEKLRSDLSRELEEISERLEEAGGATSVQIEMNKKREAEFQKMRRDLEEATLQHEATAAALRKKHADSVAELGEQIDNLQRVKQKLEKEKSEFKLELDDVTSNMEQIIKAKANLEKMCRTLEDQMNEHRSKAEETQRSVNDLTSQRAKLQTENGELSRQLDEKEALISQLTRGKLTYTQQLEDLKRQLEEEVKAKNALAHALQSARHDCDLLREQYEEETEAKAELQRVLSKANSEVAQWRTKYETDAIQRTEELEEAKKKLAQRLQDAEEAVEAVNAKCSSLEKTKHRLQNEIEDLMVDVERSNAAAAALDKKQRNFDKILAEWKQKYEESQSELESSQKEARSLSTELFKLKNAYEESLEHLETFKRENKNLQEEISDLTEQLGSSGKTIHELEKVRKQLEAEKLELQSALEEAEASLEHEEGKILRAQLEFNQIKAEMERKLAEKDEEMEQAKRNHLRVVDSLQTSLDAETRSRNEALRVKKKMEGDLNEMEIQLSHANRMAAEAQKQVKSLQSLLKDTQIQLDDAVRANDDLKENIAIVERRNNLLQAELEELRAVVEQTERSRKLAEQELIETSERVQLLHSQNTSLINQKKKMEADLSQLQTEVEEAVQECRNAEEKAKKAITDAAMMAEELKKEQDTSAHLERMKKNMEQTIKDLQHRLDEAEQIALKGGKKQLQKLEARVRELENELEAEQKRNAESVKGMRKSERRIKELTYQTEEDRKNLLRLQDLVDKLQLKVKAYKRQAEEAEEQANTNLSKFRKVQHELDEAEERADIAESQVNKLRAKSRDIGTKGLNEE

| Compound | Ventricular EC25 |
| --- | --- |
| C[C@H](NC(=O)Cc1c(C#N)c2cc(F)c(F)cc2[nH]c1=O)c1ccc(C#N)cn1 (single isomer, unassigned) [compound 2048] | 10.98 µM |
| COc1ccc2[nH]c(=O)c(CC(=O)N[C@@H](C)c3ccc(F)cc3F)cc2c1 [compound 124] | 100.00 µM |
| Cc1nc(C#N)cnc1[C@H](C)NC(=O)C(F)(F)c1c(C)c2cc(F)ccc2[nH]c1=O (single isomer, unassigned) [compound 2568] | 0.58 µM |
| C[C@@H](NC(=O)C1(c2cc3c(F)c(F)ccc3[nH]c2=O)CC1)c1ncc(C#N)cc1F (single isomer, unassigned) [compound 2592] | 0.47 µM |
| Cc1c(F)ccc2[nH]c(=O)c(C(F)(F)C(=O)N[C@H](C)c3ncc(C#N)cc3F)c(C#N)c12 (single isomer, unassigned) [compound 2519] | 1.19 µM |
| Cc1c(CC(=O)N[C@H](C)c2ncc(C#N)cc2F)c(=O)[nH]c2ccc(Cl)cc12 (single isomer, unassigned) [compound 2049] | 0.23 µM |
| Cc1c(C2(C(=O)N[C@@H]3CCc4cc(C#N)cnc43)CC2)c(=O)[nH]c2ccc(F)c(F)c12 (single isomer, unassigned) [compound 4803] | 100.00 µM |
| Cc1c(C(F)(F)C(=O)N[C@@H](C)c2cnc(C#N)cn2)c(=O)[nH]c2ccc(F)cc12 (single isomer, unassigned) [compound 2564] | 0.89 µM |
| C[C@@H](NC(=O)Cc1c(C2CC2)c2cc(C#N)ccc2[nH]c1=O)c1ncc(C#N)cc1F [compound 1151] | 21.67 µM |
| Cc1c(CC(=O)N[C@@H](C)c2ccc(C#N)nn2)c(=O)[nH]c2cc(F)c(F)cc12 [compound 1043] | 3.5 µM |
| Cc1c(CC(=O)N[C@H]2CCc3cc(C#N)cnc32)c(=O)[nH]c2ccc(F)cc12 [compound 1093] | 100.00 µM |

Same assay, conditions: Y75 value: concentration required to reduce myosin ATP-ase activity by 25%; Porcine Ventricle Prep pCa 25 GEOM_MEAN

| Compound | Ventricular EC25 |
| --- | --- |
| Cc1c(CC(=O)NC(C)c2cc(C#N)c(F)s2)c(=O)[nH]c2ccc(F)c(F)c12 (stereo not drawn) [compound 4001] | 0.58 µM |

Same assay, conditions: porcine ventricle myofibrils; Y75 value

| Compound | Ventricular EC25 |
| --- | --- |
| C[C@H](NC(=O)Cc1c(C(F)(F)F)c2c(C3CC3)nccc2[nH]c1=O)c1ccc(C#N)cn1 (single isomer, unassigned) [compound 3006] | 100.00 µM |
| COC[C@H](NC(=O)Cc1c(C)c2c(C)nccc2[nH]c1=O)c1ccc(C#N)cc1F [compound 169] | 10.52 µM |
| Cc1c(CC(=O)N[C@@H](C)c2ccc(F)cc2F)c(=O)[nH]c2ccnc(NC3CC3)c12 [compound 276] | 15.06 µM |
| Cc1nccc2[nH]c(=O)c(CC(=O)N[C@H](CO)c3ccccn3)c(C)c12 (single isomer, unassigned) [compound 316] | 100.00 µM |
| Cc1c(CC(=O)N[C@@H](CO)c2ccc(F)cc2F)c(=O)[nH]c2ccnc(OC3CC3)c12 [compound 200] | 100.00 µM |
| Cc1cccc([C@H](C)NC(=O)Cc2c(C)c3c(C)nccc3[nH]c2=O)c1 (single isomer, unassigned) [compound 340] | 100.00 µM |
